These results are taken from patent publication US6495588B2, “Scytonemin and methods of using thereof” (The Regents of the University of California, priority 2000, dated 2002).

The subject of one assay is LPS-stimulated monocytes. Briefly: Proinflammatory mediator production in LPS-stimulated monocytes. Type of assay: cell-based.
Assay [1] deals with rheumatoid synovial fibroblasts (RSFs). Briefly: [3H]-thymidine incorporation assay, PDGF-BB stimulated rheumatoid synovial fibroblasts. The format is cell-based, human. To be noted: induced by platelet-derived growth factor (1 nM PDGF-BB); listed as SCY; read-out: IC50 rheumatoid synovial fibroblast proliferation. How it is done: To determine the effect of SCY on the proliferation of several cell types, proliferation was measured in response to growth factor or serum by tritiated thymidine uptake. Rheumatoid synovial fibroblasts (RSFs) obtained from Dr. Gene Mochan at PCOM (Philadelphia, Pa.), normal human lung fibroblasts (NHLFs) (Clonetics, San Diego, Calif.), human umbilical vein endothelial cells (HUVECs) (Clonetics, San Diego, Calif.), and Jurkat T cells (ATCC, Rockville, Md.) were plated in 96 well cell culture plates (Falcon, Franklin Lakes, N.J.). About 1.2×10^4 RSF cells/well and about 1×10^4 NHLF cells/well were plated in EMEM (Eagle's Minimum Essential Medium) (Sigma, St. Louis, Mo.) comprising 10 units penicillin-streptomycin (penstrep) (GibcoBRL, Grand Island, N.Y.) and 10% FBS. About 5×10^3 HUVEC cells/well were plated in CSC media (Cell Systems, Seattle, Wash.) with 10% FBS. Fibroblasts were allowed to adhere for about 6 to about 24 hours at 37° C., 5% CO2 and the media was changed to EMEM or CSC, 0.2% FBS and incubated for 24 hours. About 2×10^4 Jurkat T cells/well (ATCC, Rockville, Md.) were plated in RPMI (Gibco BRL, Grand Island, N.Y.), comprising 10% FBS and 10 units penstrep.
All cells were incubated with compound or vehicle (0.5% DMSO) for 15 minutes at room temperature. […] [^3H]-thymidine incorporation into the DNA was measured on a Packard Top-Count.

Assay [2] deals with PMA-induced mouse ear skin hyperplasia. The assay can be described thus: Tissue hyperplasia assay (PMA-induced mouse ear skin hyperplasia). Type of assay: in vivo.
Protocol: To determine the in vivo efficacy of syctonemin, PMA-induced mouse ear skin hyperplasia model was used. As one cause of tissue hyperplasia is chronic inflammation, mouse ear skin was exposed to multiple PMA applications to simulate chronic inflammation. Specifically, 0.125, 0.25, 0.5, or 1.0 mg of scytonemin in 20 μl of 20% DMSO and 80% acetone was applied to the inner pinnae of the left ears of male, Swiss Webster mice (Taconic Farms, Germantown, N.Y.) at 0, 5, 24, 29, 48, and 53 hours. The inner pinnae of the right ears received only 10 μl of vehicle and 10 μl of acetone at 0, 5, 24, 29, 48, and 53 hours. At 0.5 and 48.5 hours, 4 μg/ear PMA (Sigma, St. Louis, Mo.) in 10 μl acetone was applied to the inner pinnae the left ears and 10 μl acetone was applied to each right ear. One hour after the last scytonemin application (54 hours) each mouse was injected with 0.6 ml of a solution containing IUdR (2 μCi-I^125/mouse) and 26 μg FUdR. This IUdR/FUdR solution was made up in RPMI 1640 media. At 72 hours, the mice were euthanized via CO2 inhalation, the ears were excised and soaked individually in a 70% EtOH solution overnight.
At 96 hours, IUdR incorporation was then measured using a Beckman Gamma counter, Model 5500B. […] IUdR incorporated was calculated by the following equation: % IUdR incorporation=(Count of Ear−Background)/(Total Count−Background). The percent of control of IUdR incorporation was calculated by the following equation: % Control=(% IUdR Uptake in Sample Ear)/(% IUdR Uptake PMA−Treated Control Ear)×100.
Alternatively, the cyrosections of the mouse ears were stained and histologically analyzed. […]
At 72 hours, the mice were euthanized and the ears were immediately embedded in a suitable hypoxy resin such as OCT media and snap frozen using melting isopentane using conventional methods. […] The sections were fixed and stained with hematoxlin and then analyzed under a microscope with a 10× magnification.
A further assay has as its target T1, rhPKCβ2 (Homo sapiens, UniProt P05771).
T1 construct: made in house; host or cells: baculovirus expression system
The assay can be described thus: PKC activity assay. To be noted: 0.01 μM ATP; read-out: IC50 rhPKC activity. The format is biochemical. How it is done:
RhPKCβ2 was expressed in a baculovirus expression system. Kinase reactions were conducted in 50 μl comprising 0.5 μg rhPKC diluted in 2 mM Tris, and 100 μM EGTA and reaction buffer comprising substrate (0.9 mM EGTA, 1.1 mM CaCl2, 0.01 mg/ml glycogen synthase peptide (H-[…]OH) (Bachem, King of Prussia, Pa.), 40 μg/ml L-α-Phosphatidyl-L-serine, 1 μg/ml 1,3-Diolen, 10 mM MgCl2, pH 7.5). To assess PKA activity, kinase reactions were conducted in 50 μl comprising 0.5 μg PKA (from bovine heart supplied by Sigma, St. Louis, Mo.) diluted in 10 mM MOPS, pH 6.5 and reaction buffer comprising substrate (50 mM MOPS, pH 6.5, 10 mM MgCl2, 0.1 mg/ml Histone-IIA (Sigma, St. Louis, Mo.), 1 μM cAMP). An ATP solution (0.01 μM ATP and 0.5 μCi of [γ^33-P] ATP) was then added to the wells in both assay systems. Inhibitors were added at the indicated concentrations with a final DMSO concentration of 10%. Reactions were allowed to proceed for 20 minutes at 37° C. and were stopped with 25 mM EDTA. The reactions were spotted onto filter paper, washed four times in a beaker comprising 75 mM phosphoric acid and rinsed with acetone. Filters were dried and put in scintillation vials with fluid and counted.

For a further assay, the system named is Jurkat T cells. Briefly: Apoptosis assay (TUNEL, flow cytometry). The format is cell-based. To be noted: 3 μM, 24 hours. The procedure: To determine the mechanism behind the ability of SCY to inhibit cell proliferation, about 2×10^5 Jurkat T cells/ml were treated with vehicle (negative control), 3 μM SCY, or 3 μM camptothecin (positive control) a (0.1% DMSO[final]) and incubated at 37° C., 5% CO2 for 24 hours. As a positive control, camptothecin, a DNA topoisomerase inhibitor, was used because of its ability to arrest Jurkat cells at the G2/M phase of the cell cycle and induce the cells to undergo apoptosis. The cells were fixed in 1% paraformaldehyde, washed once with PBS, and stored in 70% EtOH at−20° C. Apoptosis was measured using the Promega Apoptosis Detection System (Promega, Madison, Wis.) an adapted TUNEL staining method.
The cells were washed two times with 5 ml PBS 2% FBS, then transferred to a microcentrifuge tube in 1 ml PBS, 0.2% Triton×100, 5 mg/ml BSA and incubated on ice for 5 minutes. Samples were spun, PBS solution removed, then resuspended in 80 μl equilibration buffer from Promega kit and incubated at room temperature for 10 minutes. Then the samples were spun and the equilibration buffer removed. A nucleotide mix comprising 45 μl equilibration buffer, 5 μl nucleotide mix, 1 μl Tdt enzyme per sample, was used to resuspend each sample in the dark. The cells were incubated in the dark at 37° C. for 1 hour. The reaction was terminated by the addition of 20 mM EDTA. The samples were washed twice with 1 ml RNAse A and a small aliquot, about 50 μl, was viewed under a microscope. Cells were stained with fluoroscein and then counterstained with propidium iodide and analyzed for DNA content and fragmentation using a Becton-Dickinson FacsSort (Becton-Dickinson, San Jose, Calif.).
Background: Flow cytometry measures light scatter and fluorescence of single cells or particles in a stream.

T1 sequence (P05771 1-673 isoform P05771-2): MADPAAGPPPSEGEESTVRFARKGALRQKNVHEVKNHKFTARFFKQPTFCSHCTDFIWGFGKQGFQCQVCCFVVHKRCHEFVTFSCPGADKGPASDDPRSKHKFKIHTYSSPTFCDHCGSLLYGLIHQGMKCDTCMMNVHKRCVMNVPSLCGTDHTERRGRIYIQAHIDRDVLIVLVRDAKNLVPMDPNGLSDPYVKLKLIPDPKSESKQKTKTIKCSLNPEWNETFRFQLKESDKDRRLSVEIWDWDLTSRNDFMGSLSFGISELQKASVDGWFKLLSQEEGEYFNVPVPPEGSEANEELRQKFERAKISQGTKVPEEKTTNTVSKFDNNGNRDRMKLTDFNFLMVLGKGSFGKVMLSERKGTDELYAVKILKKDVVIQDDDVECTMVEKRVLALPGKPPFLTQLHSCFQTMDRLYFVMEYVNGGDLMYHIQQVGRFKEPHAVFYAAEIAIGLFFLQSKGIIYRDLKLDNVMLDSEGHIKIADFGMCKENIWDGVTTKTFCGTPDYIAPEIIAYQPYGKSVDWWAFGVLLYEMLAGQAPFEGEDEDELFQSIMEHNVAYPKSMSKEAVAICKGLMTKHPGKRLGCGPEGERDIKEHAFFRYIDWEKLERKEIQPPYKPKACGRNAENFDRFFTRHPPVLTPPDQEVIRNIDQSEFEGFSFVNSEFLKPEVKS

With scytonemin, in the assay on LPS-stimulated monocytes, the IL-1β production result is “reduces”, the PGE2 production result is “reduces” and the TNFα production entry was “reduces”. The IC50 in assay [1] was about 1500 nM. Besides, the “thickness of the epidermal layer” value in assay [2] (PMA-treated mouse ears) is reported as “reduced the thickness of the epidermal layer”. In addition, in assay [2] (scytonemin 1 mg/ear, dexamethasone 0.15 mg/ear, PMA 4 μg/ear), the “tissue hyperplasia (histology, hematoxlin)” value was “to about normal”. Besides, in assay [2] (topical), the “ED50 skin hyperplasia (IUdR incorporation)” value is recorded as “about 0.270±0.11 mg/ear”. Besides, the IC50 on rhPKCβ2 is about 3000 nM. In addition, in the assay on Jurkat T cells, the “effect on cell cycle progression” value is recorded as “did not have any cell cycle specific effect” and the “induction of apoptosis (DNA fragmentation)” value is listed as “cause the cells to undergo apoptosis in all phases of the cell cycle”.
